Data taken from PubChem BioAssay AID1963968 (Molecular Pharmacology Branch, DTP, NCI, 2024).

Tested on: 945468-187-T-J3-PDC spheroids with HUVEC/MSC, viability
Assay: Anticancer human tumor 945468-187-T-J3-PDC patient-derived rectal carcinoma cell line growth inhibition [PI3K]
Settings: for IC50: curve of first compound; for viability, T/C: stronger effect = lower value
Excerpt: Combinatorial screen of targeted agents with the PI3K inhibitors inavolisib, alpelisib, duvelisib, and copanlisib in multi-cell type tumor spheroids
A high-throughput screen of multi-cell type tumor spheroids was designed to identify active combinations of targeted small molecules and PI3K pathway inhibitors. Complex spheroids include a stromal component modeled by human endothelial cells (HUVEC) and fibroblasts modeled by human mesenchymal stem cells (MSCs). The concentration ranges selected for each drug and investigational agent were based upon clinically achievable concentrations if the clinical Cmax of the agent was known.
Compounds. The drugs and investigational agents: inavolisib (NSC800729), alpelisib (NSC765974), duvelisib (NSC772469), copanlisib (NSC816437), ipatasertib (NSC767898), afuresertib (NSC778305), talazoparib (NSC767125), sapanisertib (NSC764658), selumetinib (NSC741078), tovorafenib (DAY101, NSC766906), vemurafenib (NSC761431), ravoxertinib (NSC781343), sotorasib (NSC818433), MRTX1133 (NSC 836407), abemaciclib (NSC 768073), palbociclib (NSC758247), venetoclax (NSC 766270), SY5609 (NSC837396), enzalutamide (NSC755605), and darolutamide (NSC825331), were obtained from the National Cancer Institute (NCI) Developmental Therapeutics Program Chemical Repository. The FDA-approved anticancer drug set is available from the NCI Developmental Therapeutics Program. […] The stock solutions were prepared in dimethyl sulfoxide (DMSO, Sigma-Aldrich, St. Louis, MO, cat. D2650) at 800-fold the tested concentration and stored at -70 degrees C prior to their use. All drugs and investigational agents were tested over a range starting from a high concentration at or near the clinical Cmax and decreasing in half-log increments. If the clinical Cmax for an agent had not been determined, the highest concentration tested was 10 microM.
Cell Culture. All cells were maintained in an incubator at 37 degrees C and 5% CO2 with 95% humidity. The PDC lines were cultured according to standard operating procedures established by the NCI PDMR (https://pdmr.cancer.gov/sops/default.htm). All PDCs were thawed and cultured in Matrigel-coated flasks prepared with a working solution of 1X Ham's F-12 nutrient mix, without supplementation (Invitrogen, Waltham, MA, cat. 11765054), 100 U/mL penicillin-streptomycin (Invitrogen, cat. 15140122), and 2.5% Matrigel (Corning Inc., Corning, NY, cat. 354248) for the first three passages. The 354836-022-R-J1-PDC, 475296-252-R-J1-PDC, and 997726-040-R-J2-PDC lines were cultured in 6A media, which includes advanced DMEM/F-12 (Thermo Fisher Scientific, cat. 12634028), 10 mM HEPES (Thermo Fisher Scientific, cat. 15630080), 1X GlutaMAX supplement (Thermo Fisher Scientific, cat. 35050061), 0.1 mg/mL primocin (InvivoGen, San Diego, CA, cat. ant-pm-2), 10% defined fetal bovine serum, heat inactivated (HyClone Laboratories Inc., Logan, UT, cat. SH30070.03HI), 50% L-WRN conditioned media (ATCC, cat. CRL-3276), 1.25 mM N-Acetyl-L-cysteine (Sigma-Aldrich, cat. A9165), 10 mM nicotinamide (Sigma-Aldrich, cat. N0636), 1X B-27 supplement (Thermo Fisher Scientific, cat. 17504044), 1X N-2 supplement (Thermo Fisher Scientific, cat. 17502048), and 10 microM Y-27632 dihydrochloride (Tocris Bioscience, Bristol, United Kingdom, cat. 1254). The 624824-186-R-J2-PDC line was cultured in 6C/Colon 1B media, which includes all 6A media components plus 50 ng/mL human EGF recombinant protein (Thermo Fisher Scientific, cat. PHG0311). […]

[1] = second compound 0.00316 µM, first compound 0.0316 µM
[2] = second compound 0.00316 µM, first compound 0.1 µM
[3] = second compound 0.00316 µM, first compound 0.316 µM
[4] = second compound 0.00316 µM, first compound 1 µM
[5] = second compound 0.00316 µM, first compound 3.16 µM
[6] = second compound 0.00316 µM, first compound 10 µM
[7] = second compound 0.01 µM, first compound 0.0316 µM
[8] = second compound 0.01 µM, first compound 0.1 µM
[9] = second compound 0.01 µM, first compound 0.316 µM
[10] = second compound 0.01 µM, first compound 1 µM
[11] = second compound 0.01 µM, first compound 3.16 µM
[12] = second compound 0.01 µM, first compound 10 µM
[13] = second compound 0.0316 µM, first compound 0.0316 µM
[14] = second compound 0.0316 µM, first compound 0.1 µM
[15] = second compound 0.0316 µM, first compound 0.316 µM
[16] = second compound 0.0316 µM, first compound 1 µM
[17] = second compound 0.0316 µM, first compound 3.16 µM
[18] = second compound 0.0316 µM, first compound 10 µM
[19] = second compound 0.1 µM, first compound 0.0316 µM
[20] = second compound 0.1 µM, first compound 0.1 µM
[21] = second compound 0.1 µM, first compound 0.316 µM
[22] = second compound 0.1 µM, first compound 1 µM
[23] = second compound 0.1 µM, first compound 3.16 µM
[24] = second compound 0.1 µM, first compound 10 µM
[25] = second compound 0.316 µM, first compound 0.0316 µM
[26] = second compound 0.316 µM, first compound 0.1 µM
[27] = second compound 0.316 µM, first compound 0.316 µM
[28] = second compound 0.316 µM, first compound 1 µM
[29] = second compound 0.316 µM, first compound 3.16 µM
[30] = second compound 0.316 µM, first compound 10 µM
[31] = second compound 1 µM, first compound 0.0316 µM
[32] = second compound 1 µM, first compound 0.1 µM
[33] = second compound 1 µM, first compound 0.316 µM
[34] = second compound 1 µM, first compound 1 µM
[35] = second compound 1 µM, first compound 3.16 µM
[36] = second compound 1 µM, first compound 10 µM
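Further: spheroids exposed to agents for 7 days before viability read.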
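Wherever viability, T/C is given: 100% = DMSO vehicle control viability.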

CC(Cn1ccc(-c2ccc(C#N)c(Cl)c2)n1)NC(=O)c1cc(C(C)O)[nH]n1 (centres undefined) + CC(Nc1ccc2c(c1)OCCn1cc(N3C(=O)OCC3C(F)F)nc1-2)C(N)=O
IC50 (second compound 0.00316 µM): > 10 µM | IC50 (second compound 0.01 µM): > 10 µM | IC50 (second compound 0.0316 µM): > 10 µM | IC50 (second compound 0.1 µM): > 10 µM | IC50 (second compound 0.316 µM): > 10 µM | IC50 (second compound 1 µM): > 10 µM | viability, T/C [1]: 95.2% | viability, T/C [2]: 99.4% | viability, T/C [3]: 106% | viability, T/C [4]: 112% | viability, T/C [5]: 114% | viability, T/C [6]: 99.6% | viability, T/C [7]: 111% | viability, T/C [8]: 104% | viability, T/C [9]: 93.6% | viability, T/C [10]: 111% | viability, T/C [11]: 114% | viability, T/C [12]: 106% | viability, T/C [13]: 115% | viability, T/C [14]: 107% | viability, T/C [15]: 101% | viability, T/C [16]: 111% | viability, T/C [17]: 109% | viability, T/C [18]: 107% | viability, T/C [19]: 109% | viability, T/C [20]: 115% | viability, T/C [21]: 115% | viability, T/C [22]: 114% | viability, T/C [23]: 107% | viability, T/C [24]: 99.1% | viability, T/C [25]: 107% | viability, T/C [26]: 107% | viability, T/C [27]: 96.7% | viability, T/C [28]: 115% | viability, T/C [29]: 108% | viability, T/C [30]: 102% | viability, T/C [31]: 80.5% | viability, T/C [32]: 68.6% | viability, T/C [33]: 75.4% | viability, T/C [34]: 71.2% | viability, T/C [35]: 74.8% | viability, T/C [36]: 71.1%

CC1(C)CCC(Nc2ncc(C(F)(F)F)c(-c3c[nH]c4c(P(C)(C)=O)c(C#N)ccc34)n2)CN1 (centres undefined) + CC(Nc1ccc2c(c1)OCCn1cc(N3C(=O)OCC3C(F)F)nc1-2)C(N)=O
IC50 (second compound 0.00316 µM): 5.65 µM | IC50 (second compound 0.01 µM): 5.69 µM | IC50 (second compound 0.0316 µM): 5.24 µM | IC50 (second compound 0.1 µM): 5.3 µM | IC50 (second compound 0.316 µM): 3.77 µM | IC50 (second compound 1 µM): 1.99 µM | viability, T/C [1]: 83.5% | viability, T/C [2]: 85.8% | viability, T/C [3]: 69.1% | viability, T/C [4]: 85.8% | viability, T/C [5]: 86.1% | viability, T/C [6]: 18.5% | viability, T/C [7]: 83.8% | viability, T/C [8]: 83.5% | viability, T/C [9]: 72.3% | viability, T/C [10]: 94.7% | viability, T/C [11]: 96.6% | viability, T/C [12]: 15.1% | viability, T/C [13]: 82.9% | viability, T/C [14]: 77.4% | viability, T/C [15]: 71.2% | viability, T/C [16]: 79.8% | viability, T/C [17]: 87.3% | viability, T/C [18]: 11.8% | viability, T/C [19]: 86.1% | viability, T/C [20]: 88.6% | viability, T/C [21]: 70.8% | viability, T/C [22]: 77.6% | viability, T/C [23]: 82% | viability, T/C [24]: 11.9% | viability, T/C [25]: 82.4% | viability, T/C [26]: 79.2% | viability, T/C [27]: 80.7% | viability, T/C [28]: 61.4% | viability, T/C [29]: 63.2% | viability, T/C [30]: 8.03% | viability, T/C [31]: 80.7% | viability, T/C [32]: 62.4% | viability, T/C [33]: 62% | viability, T/C [34]: 51.6% | viability, T/C [35]: 52.2% | viability, T/C [36]: 4.39%
